Reference: patent publication US10604514B2, “6-(5-membered heteroaryl)isoquinolin-3-yl carboxamides and preparation and use thereof” (Samumed, LLC, priority 2017, dated 2020)
Where two headings read alike, the source gives them in different places.

Key:
[1] = test system: Wnt activity (Sp5-Luc reporter in SW480 colon carcinoma cells); assay: Wnt activity screening assay (Sp5-Luc reporter gene assay); format: cell-based, human; details: Homo sapiens; for EC50: Sp5-Luc reporter, SW480 cells, 36 to 48 hours
Excerpt: The screening assay for Wnt activity is described as follows. Reporter cell lines can be generated by stably transducing cancer cell lines (e.g., colon cancer) or primary cells (e.g., IEC-6 intestinal cells) with a lentiviral construct that includes a Wnt-responsive promoter driving expression of the firefly luciferase gene.
SW480 colon carcinoma cells were transduced with a lentiviral vector expressing luciferase with a human Sp5 promoter consisting of a sequence of eight TCF/LEF binding sites. SW480 cells stably expressing the Sp5-Luc reporter gene and a hygromycin resistance gene were selected by treatment with 150 μg/mL of hygromycin for 7 days. These stably transduced SW480 cells were expanded in cell culture and used for all further screening activities. Each compound was dissolved in DMSO as a 10 mM stock and used to prepare compound source plates. Serial dilution (1:3, 10-point dose-response curves starting from 10 μM) and compound transfer was performed using the ECHO 550 (Labcyte, Sunnyvale, Calif.) into 384-well white solid bottom assay plates (Greiner Bio-One) with appropriate DMSO backfill for a final DMSO concentration of 0.1%. For Sp5-Luc reporter gene assays, the cells were plated at 4,000 cells/well in 384-well plates with a DMEM medium containing 1% fetal bovine serum, and 1% Penicillin-Streptomycin and incubated for 36 to 48 hours at 37° C. and 5% CO2. Following incubation, 15 μl of BriteLite Plus luminescence reagent (Perkin Elmer) was added to each well of the 384-well assay plates. The plates were placed on an orbital shaker for 2 min and then luminescence was quantified using the Envision (Perkin Elmer) plate reader. Readings were normalized to DMSO only treated cells, and normalized activities were utilized for EC50 calculations using the dose-response log (inhibitor) vs. response -variable slope (four parameters) nonlinear regression feature available in GraphPad Prism 5.0 (or Dotmatics).

[2] = test system: Tau phosphorylation at Ser396 (pSer396), SH-SY5Y cells; assay: Tau phosphorylation at Ser396 (pSer396) in SH-SY5Y cells, ELISA/western blot; format: cell-based, human; details: Homo sapiens; SH-SY5Y cells, overnight (16-18 h); read-out: pSer396 Tau EC50;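 further: cell lysates probed for reduced Tau pSer396 via ELISA (colorimetric) or western blot (chemiluminescence), both with one shared pSer396 antibody, EC50 for lowering phosphorylation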
[3] = test system: LL29 cells (primary human fibroblasts derived from IPF patients), α-smooth muscle actin; assay: Inhibition of fibrotic process: αSMA in TGF-β1-treated primary human fibroblasts from IPF patients (LL29 cells); format: cell-based; details: Homo sapiens, Fibroblast; for EC50: 96 h, % αSMA-positive LL29 cells, TGF-β1 20 ng/mL, 4 days; for inhibition at 10 µM: read-out: percent inhibition at 10 μM
Excerpt: Representative compounds were screened using primary human fibroblasts (derived from IPF patients) treated with TGF-β1 to determine their ability to inhibit the fibrotic process.
Primary human fibroblasts derived from IPF patients (LL29 cells) [^1Xiaoqiu Liu, et. al., “Fibrotic Lung Fibroblasts Show Blunted Inhibition by cAMP Due to Deficient cAMP Response Element-Binding Protein Phosphorylation”, Journal of Pharmacology and Experimental Therapeutics (2005), 315(2), 678-687; ^2Watts, K. L., et. al., “RhoA signaling modulates cyclin D1 expression in human lung fibroblasts; implications for idiopathic pulmonary fibrosis”, Respiratory Research (2006), 7(1), 88] were obtained from American Type Culture Collection (ATCC) and expanded in F12 medium supplemented with 15% Fetal Bovine Serum and 1% Penicillin/Streptomycin.
Each compound was dissolved in DMSO as a 10 mM stock and used to prepare compound source plates. Serial dilution (1:2, 11-point dose-response curves from […] to 0.94 nM) and compound transfer was performed using the ECHO 550 (Labcyte, Sunnyvale, Calif.) into 384-well clear bottom assay plates (Greiner Bio-One) with appropriate DMSO backfill for a final DMSO concentration of 0.1%. LL29 cells were plated at 1,500 cells/well in 70 μL/well F12 medium supplemented with 1% Fetal Bovine Serum. TGF-β1 (Peprotech; 20 ng/mL) was added to the plates to induce fibrosis (ref. 1 and 2 above). Wells treated with TGF-31 and containing DMSO were used as positive control, and cells with only DMSO were negative control. Cells were incubated at 37° C. and 5% CO2 for 4 days. Following incubation for 4 days, SYTOX green nucleic acid stain (Life Technologies [Thermo Fisher Scientific]) was added to the wells at a final concentration of 1 μM and incubated at room temperature for 30 min. Cells were then fixed using 4% formaldehyde (Electron Microscopy Sciences), washed 3 times with PBS followed by blocking and permeabilization using 3% Bovine Serum Albumin (BSA; Sigma) and 0.3% Triton X-100 (Sigma) in PBS. Cells were then stained with antibody specific to α-smooth muscle actin (αSMA; Abcam) (ref. 1 and 2 above) in 3% Bovine Serum Albumin (BSA; Sigma) and 0.3% Triton X-100 (Sigma) in PBS, and incubated overnight at 4° C. Cells were then washed 3 times with PBS, followed by incubation with Alexa Flor-647 conjugated secondary antibody (Life Technologies [Thermo Fisher Scientific]) and DAPI in 3% Bovine Serum Albumin (BSA; Sigma) and 0.3% Triton X-100 (Sigma) in PBS at room temperature for 1 hour. Cells were then washed 3 times with PBS and plates were sealed for imaging. αSMA staining was imaged by excitation at 630 nm and emission at 665 nm and quantified using the Compartmental Analysis program on the CellInsight CX5 (Thermo Scientific). Dead or apoptotic cells were excluded from analysis based on positive SYTOX green staining. % of total cells positive for αSMA were counted in each well and normalized to the average of 11 wells treated with TGF-β1 on the same plate using Dotmatics' Studies Software.

[4] = test system: SW480 colon carcinoma cells; assay: Cell viability assay (CellTiter-Glo) in SW480 cells; format: cell-based, human; details: Homo sapiens; for EC50: 96 h, cell viability, SW480 cells, four days, CellTiter-Glo; for inhibition at 10 µM: SW480, read-out: percent inhibition at 10 μM;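 on all read-outs here: SW480 cells stably carrying an Sp5-luciferase TCF/LEF reporter, luminescent ATP signal as viability measure, DMSO-treated cells as control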
[5] = test system: IL-6; assay: IL-6 inhibition in LPS-stimulated human peripheral blood mononuclear cells (HTRF); format: cell-based; details: Homo sapiens, PBMC; for EC50: IL-6, LPS-stimulated huPBMCs, HTRF; for inhibition at 10 µM: read-out: percent value in parentheses below EC50 >10
Description: Fresh Normal PB MNC (Catalog # PB001, AllCells, Alameda, Calif.) were shipped overnight at 4° C. and resuspended in Roswell Park Memorial Institute (RPMI) 1640 Medium, with GlutaMAX Supplement (Catalog #61870127, ThermoFisher Scientific, Waltham, Mass.) supplemented with 1% Penicillin-Streptomycin (Catalog #151401633 ThermoFisher Scientific, Waltham, Mass.) and 1% fetal bovine serum (FBS) (Catalog #16140089, ThermoFisher Scientific, Waltham, Mass.) assay media.
Fresh normal human peripheral blood mononuclear cells (huPBMCs) were resuspended in 1% FBS-RPMI assay media with 1% Penicillin-Streptomycin 1% to a cell concentration of 1×10e6 cells/mL. Each compound was dissolved in DMSO (Catalog # D8418-100 ml, Sigma-Aldrich, St. Louis, Mo.) as a 10 mM stock and used to prepare compound source plates. Serial dilution (1:3, 10-point dose-response curves starting from 10 μM) and compound transfer was performed using the ECHO 550 (Labcyte, Sunnyvale, Calif.) into 384-well white Proxiplate-Plus assay plates (Catalog #6008289, PerkinElmer, Shelton, Conn.) with appropriate DMSO backfill for a final DMSO concentration of 0.25%. huPBMCs were plated at 5000 cells/well in the 384-well Proxiplate-Plus assay plates and incubated at 37° C.-5% CO2 for 2 hours. 50 ng/mL of Lipopolysaccharides from Escherichia coli 0111:B4 (Catalog # L5293-2 ML, Sigma-Aldrich, St. Louis, Mo.) was added after 2 hours and cells were incubated for another 22 hours at 37° C.-5% CO2. After 22 hour incubation, a mixture of anti-IL6 XL665 and anti-IL-6 Cryptate diluted in reconstitution buffer (Catalog #62IL6PEC, Cisbio Inc., Bedford, Mass.) was added to each well. Following incubation for 3 hours at room temperature, Homogeneous Time-Resolved Fluorescence (HTRF) was measured using the Envision (Perkin Elmer, Shelton, Conn.) at 665 nm and […]. The ratio of fluorescence at 665 nm to 620 nm was used as a readout for IL-6 quantification. All samples were processed in duplicate. Readings were normalized to DMSO treated cells and normalized activities were utilized for EC50 calculations. EC50 was determined using software generated by Dotmatics Limited (Windhill Bishops Stortford Herts, UK) using the Levenberg-Marquardt 4 parameter fitting procedure with finite different gradients.

[6] = target: GSK3β kinase (Homo sapiens (Human), UniProt P49841); assay: GSK3β kinase assay (Ser/Thr 09 peptide Z-lyte, FRET); format: biochemical; details: method text calls the value IC50;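 further: Coumarin/fluorescein emission ratio converted to percent phosphorylation against unphosphorylated (0%) and phosphorylated (100%) controls, 1 h compound incubation at room temperature, 11-point threefold dilutions from 10 µM, run in duplicate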
Sequence of GSK3β kinase (P49841 whole entry): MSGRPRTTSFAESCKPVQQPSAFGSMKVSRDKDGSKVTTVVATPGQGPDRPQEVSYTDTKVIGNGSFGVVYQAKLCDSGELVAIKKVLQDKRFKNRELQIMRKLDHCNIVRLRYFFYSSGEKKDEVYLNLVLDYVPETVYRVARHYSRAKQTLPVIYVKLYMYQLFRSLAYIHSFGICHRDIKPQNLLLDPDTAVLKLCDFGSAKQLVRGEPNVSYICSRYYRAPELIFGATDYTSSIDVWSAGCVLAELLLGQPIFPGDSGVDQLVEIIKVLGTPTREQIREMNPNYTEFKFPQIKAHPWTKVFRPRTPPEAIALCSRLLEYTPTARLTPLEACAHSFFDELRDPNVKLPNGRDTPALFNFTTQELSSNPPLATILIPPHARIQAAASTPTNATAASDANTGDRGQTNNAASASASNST
Description: Representative compounds were screened using the assay procedure for GSK30 kinase activity as described below.
Each compound is dissolved in DMSO as a 10 mM stock and used to prepare compound source plates. Serial dilution (1:3, 11-point dose-response curves from 10 M to 0.0003 μM) and compound transfer was performed using the ECHO 550 (Labcyte, Sunnyvale, Calif.) into 1536-well black-walled round bottom plates (Corning).
This is a non-radioactive assay using fluorescence resonance energy transfer (FRET) between coumarin and fluorescein to detect kinase activity which is represented as ratio of coumarin emission/fluorescein emission.
The mixture is allowed to incubate with the representative compounds for one hour at room temperature. All reactions were performed in duplicate. Unphosphorylated (“0% Control”) and phosphorylated (“100% control”) forms of Ser/Thr 18 serve as control reactions.
After incubation, diluted Development Buffer is added to the reaction and allowed to further incubate for one hour at room temperature.
The percent phosphorylation is then calculated using the following formula: [1−((Em ratio×F100%)−C100%)/((C0%−C100%)+(Em ratio×(F100%−F0%)))].
Dose-response curves are generated and inhibitory concentration (IC50) values are calculated using non-linear regression curve fit in the Dotmatics' Studies Software (Bishops Stortford, UK).

[7] = target: DYRK1A kinase (Homo sapiens (Human), UniProt Q13627); assay: DYRK1A kinase assay (Ser/Thr 18 peptide Z-lyte, FRET)
[8] = DYRK1A kinase, method text calls the value IC50

Structure (SMILES)	EC50 [1]	EC50 [2]	EC50 [3]	EC50 [4]	EC50 [5]	EC50 [6]	EC50 [7]	EC50 [7, 8]	inhibition at 10 µM [3]	inhibition at 10 µM [4]	inhibition at 10 µM [5]	inhibition at 10 µM ([1]; SW480, read-out: percent inhibition at 10 μM)
[2H]c1c(NC(=O)C2CCNCC2)ncc2ccc(-c3cnn(C)c3)cc12 [Compound 5, N-(6-(1-Methyl-1H-pyrazol-4-yl)isoquinolin-3-yl-4-d)piperidine-4-carboxamide]	917 nM	511 nM	113 nM	738 nM	1050 nM	115 nM	3 nM					
Cn1cc(-c2cc(F)c3cnc(NC(=O)[C@H]4CC[C@H](N(C)C)CC4)cc3c2)nn1 [Compound 10, trans-4-(Dimethylamino)-N-(8-fluoro-6-(1-methyl-1H-1,2,3-triazol-4-yl)isoquinolin-3-yl)cyclohexane-1-carboxamide]	923 nM	119 nM	208 nM	719 nM	9220 nM	18 nM		4 nM				
Cn1cc(-c2ccc3cnc(NC(=O)CN4CCOCC4)cc3c2)nn1 [Compound 11, N-(6-(1-Methyl-1H-1,2,3-triazol-4-yl)isoquinolin-3-yl)-2-morpholinoacetamide]	2810 nM	190 nM	> 10000 nM	> 10000 nM	> 10000 nM	10 nM		10 nM	3.8%	46.3%	38.4%	
Cc1nc(-c2ccc3cnc(NC(=O)[C@H]4CC[C@H](N5CCN(C)CC5)CC4)cc3c2)co1 [Compound 12, trans-N-(6-(2-Methyloxazol-4-yl)isoquinolin-3-yl)-4-(4-methylpiperazin-1-yl)cyclohexane-1-carboxamide]	943 nM	436 nM	102 nM	713 nM	1120 nM	189 nM		16 nM				
Cc1ncc(-c2ccc3cnc(NC(=O)N4CCOCC4)cc3c2)n1C [Compound 13, N-(6-(1,2-Dimethyl-1H-imidazol-5-yl)isoquinolin-3-yl)morpholine-4-carboxamide]	3700 nM	4700 nM	> 10000 nM	3510 nM	> 10000 nM	1250 nM		13 nM	38.2%		17.6%	
Cn1cnnc1-c1ccc2cnc(NC(=O)CN3CCOCC3)cc2c1 [Compound 14, N-(6-(4-Methyl-4H-1,2,4-triazol-3-yl)isoquinolin-3-yl)-2-morpholinoacetamide]	5350 nM	382 nM	1380 nM	5550 nM	> 10000 nM	48 nM		33 nM			12.5%	
Cc1nnc(-c2ccc3cnc(NC(=O)CN4CCOCC4)cc3c2)n1C [Compound 15, N-(6-(4,5-Dimethyl-4H-1,2,4-triazol-3-yl)isoquinolin-3-yl)-2-morpholinoacetamide]	> 10000 nM	981 nM	896 nM	> 10000 nM	> 10000 nM	59 nM		61 nM		38%	15.8%	40.1%
CN[C@H]1CC[C@H](C(=O)Nc2cc3cc(-c4cnc(C)o4)ccc3cn2)CC1 [Compound 16, trans-4-(Methylamino)-N-(6-(2-methyloxazol-5-yl)isoquinolin-3-yl) cyclohexane-1-carboxamide]	1460 nM	286 nM	172 nM	808 nM	1040 nM	122 nM		5 nM				
Cc1ncc(-c2cc(F)c3cnc(NC(=O)[C@H]4CC[C@H](N(C)C)CC4)cc3c2)o1 [Compound 17, trans-4-(Dimethylamino)-N-(8-fluoro-6-(2-methyloxazol-5-yl)isoquinolin-3-yl)cyclohexane-1-carboxamide]	4100 nM	743 nM	1430 nM	6910 nM	3440 nM	188 nM		18 nM				
Cc1ncc(-c2cc3cc(NC(=O)[C@H]4CC[C@H](N(C)C)CC4)ncc3cc2F)o1 [Compound 18, trans-4-(Dimethylamino)-N-(7-fluoro-6-(2-methyloxazol-5-yl)isoquinolin-3-yl)cyclohexane-1-carboxamide]	671 nM	186 nM	149 nM	587 nM	1250 nM	68 nM		3 nM				
